Counter-ions that a name gives are not always drawn.
What follows are molecules tested against T1, human GPR4 (Homo sapiens, UniProt P46093) (assay: Cell-based assay for human GPR4 activity (pH-induced cAMP formation, HTRF)). Details: HeLa cells stably expressing human GPR4, pH-induced cAMP formation.
T1 construct: expressed in transfected cells
Method: a) Cell-Based Assay for Human GPR4 Activity
HeLa cells stably expressing human GPR4 were established by transfecting the cells with a construct containing the human GPR4 coding sequence. The cells were grown in DMEM/HAM's F12 medium supplemented with 10% fetal calf serum (FCS), 100 u/ml penicillin, 100 μg/ml streptomycin and 400 μg/ml G418 and 10 mM Hepes pH 8.0. pH-induced formation of cAMP was determined using the HTRF technology as provided by CisBio Inc. The cells were seeded in 384-well plates and cultured for 24 hours at 37° C., 5% CO2 before performing the assay. Medium was removed and 10 μl buffer A (HBS, 10 mM Hepes, pH 8, 2 mM IBMX) was added. For compound testing, buffer A with 2× concentrated compounds was used. Cells were incubated for 15 min at room temperature. 10 μl buffer B (HBS, 30 mM Hepes, specific pH) was added to reach the appropriate final pH for stimulation (see below) and incubation was continued for 15 min at room temperature. […] HBS: 130 mM NaCl, 0.9 mM NaH2PO4, 5.4 mM KCl, 0.8 mM MgSO4, CaCl2 1.8 mM, 25 mM glucose, 10-30 mM Hepes. Adjustment of HBS buffers: Bf A Bf B Final stimulation pH (1 volume buffer A+1 volume buffer B)
Compounds were diluted from fresh stock solutions at 10 mM in DMSO to 2 mM and then used for serial dilutions in DMSO.

T1 sequence (P46093 whole entry): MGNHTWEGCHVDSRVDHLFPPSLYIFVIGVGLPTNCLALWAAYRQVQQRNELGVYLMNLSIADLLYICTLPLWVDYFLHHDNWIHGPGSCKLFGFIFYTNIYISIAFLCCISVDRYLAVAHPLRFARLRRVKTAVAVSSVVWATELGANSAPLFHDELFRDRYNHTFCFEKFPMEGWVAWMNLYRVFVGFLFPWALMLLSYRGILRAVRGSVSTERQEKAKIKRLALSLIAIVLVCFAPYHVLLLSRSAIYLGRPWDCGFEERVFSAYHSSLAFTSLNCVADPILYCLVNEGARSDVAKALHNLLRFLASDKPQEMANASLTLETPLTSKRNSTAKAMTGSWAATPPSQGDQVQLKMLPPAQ

First: CCc1nc2c(C)cc(C)nc2n1Cc1ccc(/C=C/CN2CCN(C(C)C)C(C)C2)cc1 (centres unmarked) [Example 71, 2-Ethyl-3-{4-[(E)-3-(4-isopropyl-3-methyl-piperazin-1-yl)-propenyl]-benzyl}-5,7-dimethyl-3H-imidazo[4,5-b]pyridine]
Second: CCc1nc2c(C)cc(C)nc2n1Cc1ccc(/C=C/CN2CCN(CC)C(C)C2)cc1 (centres unmarked) [Example 69, 2-Ethyl-3-{4-[(E)-3-(4ethyl-3-methyl-piperazin-1-yl)-propenyl]-benzyl}-5,7-dimethyl-3H-imidazo[4,5-b]pyridine dihydrochloride]
The IC50 of the first is 2.6-fold higher: 530 nM for the first, 201 nM for the second. The second is the more potent here.

First: CCc1nc2c(C)cc(C)nc2n1Cc1ccc(/C=C/CN2C[C@H]3C[C@@H]2CN3CC2CC2)cc1 [Example 76, 3-{4-[(E)-3-((1R,4R)-5-Cyclopropylmethyl-2,5-diaza-bicyclo[2.2.1]hept-2-yl)-propenyl]-benzyl}-2-ethyl-5,7-dimethyl-3H-imidazo[4,5-b]pyridine trihydrochloride]
Second: CCc1nc2c(C)cc(C)nc2n1Cc1ccc(CCCN2C[C@H]3C[C@@H]2CN3CC2CC2)cc1 [Example 28, 3-{4-[3-((1R,4R)-5-Cyclopropylmethyl-2,5-diaza-bicyclo[2.2.1]hept-2-yl)-propyl]-benzyl}-2-ethyl-5,7-dimethyl-3H-imidazo[4,5-b]pyridine]
The IC50 of the first is 3.9-fold lower: 111 nM for the first, 436 nM for the second. The first is the more potent here.

First: CCc1nc2c(C)cc(C)nc2n1Cc1ccc(/C=C/CN2CCN(CCCN(C)C)CC2)cc1 [Example 59, [3-(4-{(E)-3-[4-(2-Ethyl-5,7-dimethyl-imidazo[4,5-b]pyridin-3-ylmethyl)-phenyl]-allyl}-piperazin-1-yl)-propyl]-dimethyl-amine dihydrochloride]
Second: CCc1nc2c(C)cc(C)nc2n1Cc1ccc(/C=C/CN2CCN(CCN(CC)CC)CC2)cc1 [Example 60, Diethyl-[2-(4-{(E)-3-[4-(2-ethyl-5,7-dimethyl-imidazo[4,5-b]pyridin-3-ylmethyl)-phenyl]-allyl}-piperazin-1-yl)-ethyl]-amine hydrochloride]
The IC50 of the first is 4.3-fold lower: 231 nM for the first, 995 nM for the second.

`CCc1nc2c(C)cc(C)nc2n1Cc1ccc(C#CCN2CCN(C(C)C)CC2)cc1` [Example 1, 2-Ethyl-3-{4-[3-(4-isopropyl-piperazin-1-yl)-prop-1-ynyl]-benzyl}-5,7-dimethyl-3H-imidazo[4,5-b]pyridine] and `CCc1nc2c(C)cc(C)nc2n1Cc1ccc(CCCN2CCN(C(C)C)CC2)cc1` [Example 8, 2-Ethyl-3-{4-[3-(4-isopropyl-piperazin-1-yl)-propyl]-benzyl}-5,7-dimethyl-3H-imidazo[4,5-b]pyridine dihydrochloride] are within 1.5-fold of each other in IC50: 189 nM for the first, 274 nM for the second.

Going from `CCc1nc2c(C)cc(C)nc2n1Cc1ccc(C(=O)NCCCCN2CCCCCC2)cc1` [Example 100, N-(4-Azepan-1-yl-butyl)-4-(2-ethyl-5,7-dimethyl-imidazo[4,5-b]pyridin-3-ylmethyl)-benzamide] to `CCc1nc2c(C)cc(C)nc2n1Cc1ccc(CCCN2CCN(C3CCCCC3)CC2)cc1` [Example 19, 3-{4-[3-(4-Cyclohexyl-piperazin-1-yl)-propyl]-benzyl}-2-ethyl-5,7-dimethyl-3H-imidazo[4,5-b]pyridine dihydrochloride], the IC50 falls from 495 nM to 182 nM (2.7-fold).

First: CCc1nc2c(C)cc(C)nc2n1Cc1ccc(/C=C/CN2CCC(O)CC2)cc1 [Example 36, 1-{(E)-3-[4-(2-Ethyl-5,7-dimethyl-imidazo[4,5-b]pyridin-3-ylmethyl)-phenyl]-allyl}-piperidin-4-ol]
Second: CCc1nc2c(C)cc(C)nc2n1Cc1ccc(/C=C/CN2CCC(OCC(=O)NC)CC2)cc1 [Example 38, 2-(1-{(E)-3-[4-(2-Ethyl-5,7-dimethyl-imidazo[4,5-b]pyridin-3-ylmethyl)-phenyl]-allyl}-piperidin-4-yloxy)-N-methyl-acetamide]
The IC50 of the first is 1.5-fold lower: 477 nM for the first, 718 nM for the second.

Compared with `CCc1nc2c(C)cc(C)nc2n1Cc1ccc(/C=C/CN2CCC(N3CCCC3)CC2)cc1` [Example 32, 2-Ethyl-5,7-dimethyl-3-{4-[(E)-3-(4-pyrrolidin-1-yl-piperidin-1-yl)-propenyl]-benzyl}-3H-imidazo[4,5-b]pyridine], `Cc1cc(C)c2nc(C)n(Cc3ccc(/C=C/CN4CCC(N5CCCCC5)CC4)cc3)c2n1` [Example 30, 1′-{(E)-3-[4-(2,5,7-Trimethyl-imidazo[4,5-b]pyridin-3-ylmethyl)-phenyl]-allyl}-[1,4′]bipiperidinyl] is 1.9-fold lower in IC50: 177 nM for the first, 94 nM for the second.

Compared with `CCc1nc2c(C)cc(C)nc2n1Cc1ccc(/C=C/CN2CCN(CC(=O)N(C)C)CC2)cc1` [Example 65, 2-(4-{(E)-3-[4-(2-Ethyl-5,7-dimethyl-imidazo[4,5-b]pyridin-3-ylmethyl)-phenyl]-allyl}-piperazin-1-yl)-N,N-dimethyl-acetamide], `CCc1nc2c(C)cc(C)nc2n1Cc1ccc(/C=C/CN2CCN(CC3CCC3)CC2)cc1` [Example 55, 3-{4-[(E)-3-(4-Cyclobutylmethyl-piperazin-1-yl)-propenyl]-benzyl}-2-ethyl-5,7-dimethyl-3H-imidazo[4,5-b]pyridine dihydrochloride] is 7.5-fold lower in IC50: 647 nM for the first, 86 nM for the second. The second is the more potent here.

First: CCc1nc2c(C)cc(C)nc2n1Cc1ccc(/C=C(\F)CN2CCN(C(C)C)CC2)cc1 [Example 94, 2-Ethyl-3-{4-[(Z)-2-fluoro-3-(4-isopropyl-piperazin-1-yl)-propenyl]-benzyl}-5,7-dimethyl-3H-imidazo[4,5-b]pyridine dihydrochloride]
Second: CCc1nc2c(C)cc(C)nc2n1Cc1ccc(CCCN2CCN(C)CC2)cc1 [Example 6, 2-Ethyl-5,7-dimethyl-3-{4-[3-(4-methyl-piperazin-1-yl)-propyl]-benzyl}-3H-imidazo[4,5-b]pyridine dihydrochloride]
The IC50 of the first is 16-fold lower: 24 nM for the first, 395 nM for the second. The first is the more potent here.

`CCc1nc2c(C)cc(C)nc2n1Cc1ccc(/C=C/CN2CCOC(CNC(=O)OC(C)(C)C)C2)cc1` (centres unmarked) [Example 77, (4-{(E)-3-[4-(2-Ethyl-5,7-dimethyl-imidazo[4,5-b]pyridin-3-ylmethyl)-phenyl]-allyl}-morpholin-2-ylmethyl)-carbamic acid tert-butyl ester] and `COC(=O)C1CCN(C/C=C/c2ccc(Cn3c(C(F)(F)F)nc4c(C)cc(C)nc43)cc2)CC1` [Example 90, 1-{(E)-3-[4-(5,7-Dimethyl-2-trifluoromethyl-imidazo[4,5-b]pyridin-3-ylmethyl)-phenyl]-allyl}-piperidine-4-carboxylic acid methyl ester hydrochloride] are within 1.5-fold of each other in IC50: 512 nM for the first, 568 nM for the second.

Going from `CCc1nc2c(C)cc(C)nc2n1Cc1ccc(/C=C/Cn2ccnc2)cc1` [Example 80, 2-Ethyl-3-[4-((E)-3-imidazol-1-yl-propenyl)-benzyl]-5,7-dimethyl-3H-imidazo[4,5-b]pyridine hydrochloride] to `Cc1cc(C)c2nc(C(F)(F)F)n(Cc3ccc(/C=C/CN4CCN(C(C)(C)C)CC4)cc3)c2n1` [Example 92, 3-{4-[(E)-3-(4-tert-Butyl-piperazin-1-yl)-propenyl]-benzyl}-5,7-dimethyl-2-trifluoromethyl-3H-imidazo[4,5-b]pyridine], the IC50 falls from 485 nM to 30 nM (16-fold). The second is the more potent here.

`CCc1nc2c(C)cc(C)nc2n1Cc1ccc(CCCN2CCN(C(C)C)C(CC)C2)cc1` (centres unmarked) [Example 25, 2-Ethyl-3-{4-[3-(3-ethyl-4-isopropyl-piperazin-1-yl)-propyl]-benzyl}-5,7-dimethyl-3H-imidazo[4,5-b]pyridine] showed an IC50 of 364 nM.
